According to patent US7781580B2, “Stilbene derivatives as new cancer therapeutic agents” (Virginia Commonwealth University, priority 2007, dated 2010):

Key:
[1] = tested on: c-kit-positive progenitor cells (engraftment); experiment: bone marrow transplantation of stilbene-treated progenitor cells; type: in vivo, mice; conditions: cells incubated at 0.1 or 0.5 μM for 16 hours
Description: FIG. 16. (a) Effect of stilbenes in normal bone marrow progenitor cells. c-kit-positive bone marrow mononuclear cells were isolated for incubation with stilbenes 4a or 4c at 0.1 or 0.5 […] for 16 hours. Cells were harvested for fixation and PI staining. Cell cycle analysis and quantification of the subG0/1 population were analyzed by FACScan flow cytometry. The percentages of the apoptotic population were indicated. Shown are the representatives of two independent experiments. (b) Effect of stilbenes in HL60 cells as positive control. HL60 cells were treated with stilbenes 4a or 4c in the same medium as the positive control. (c) Colony forming assay of the stilbene-treated c-kit-positive cells. […] Cells were incubated for 14 days and the grossly visible colonies were counted. […] Mice were monitored for survival and lineage-specific donor engraftment by flow cytometry analysis of peripheral blood. […]
C57BL/6J (H2b, CD45.2) mice served as bone marrow donors and were between 6-10 weeks of age. […] Peripheral blood engraftment in recipient mice was assessed by flow cytometry analysis for CD3+ (145-2C11; BD Biosciences, San Jose, Calif.) T-cells, B220+ (RA3-6B2) B-cells, Mac1+ (M1/70.15) monocytes, and Gr1+ (8C5) granulocytes and distinguished between donor versus recipient with anti-CD45.1 (A20) and anti-CD45.2 (104) monoclonal antibodies.

Tubulin (>99% pure) = experiment: tubulin polymerization assay (OD 340 nm); type: biochemical; conditions: OD340 nm; nocodazole and paclitaxel 10 μM
Description: FIG. 3a-d. Stilbenes inhibit tubulin polymerization. (a) Effect of stilbene 4a. Pure tubulin was incubated with various concentrations of stilbene 4a, 10 μM nocodazole, and 10 μM paclitaxel in the polymerization buffer. The OD at 340 nm was monitored every minute by SpectraMAX 250 and plotted against time. (b) Effect of stilbene 4c. (c) Comparison of same concentrations of stilbenes 4a, 4a trans, 4c and 4c trans with control. […] Tubulin was incubated with [^3H]-colchicine and various concentrations of different stilbenes for 20 min. Tubulin was then separated from the unbound [^3H]-colchicine by Microcon-30 and washed three times with PBS. The radioactivity of the tubulin was counted. […] All experiments were done in triplicates.
The tubulin polymerization assay kit was purchased from Cytoskeleton (Denver, Colo.). Tubulin (>99% pure) was mixed with general tubulin buffer (GTB, 80 mM PIPES pH 6.9, 2 mM MgCl2, 0.5 mM EGTA, and 1 mM GTP) in a 96-well plate at 37° C. Absorbance at 340 nm was measured every 1 min for 60 min by SpectraMAX 250 (Molecular Devices, Sunnyville, Calif.). Analysis of the results was performed by SoftMAX Pro version 1.2.0 from the same company.

[2] = tested on: UCI101 ovarian cancer cells; experiment: Western blot of signal transduction events, UCI101; type: cell-based
Description: All these agents are microtubule interfering agents but with different binding sites. Cells were harvested at 0, 4, 8, 16 and 36 hours after drug treatment for Western blot analysis. […] Phosphorylation of both Cdc25C and Cdc2 disappeared after 16 hours and slightly recovered at 36 hours. […] Akt phosphorylation decreased after 16 hours of treatment.
In order to understand the mechanism of resistance of stilbenes, various signal transduction pathways were investigated to examine how cells respond to stilbene treatment. UCI101 ovarian cancer cells were treated with stilbenes 4a, 4c or paclitaxel (Taxol) at 0.1 μM for 0, 4, 8, 16 and 36 hours. Cells were harvested for Western blotting. Changes in the kinases involved in cell cycle progression from G2-M transition were first determined in Cdc2, Cdc25c, and mitotic spindle check point regulator BubR1. […] 36 hours after treatment, rephosphorylation of Cdc2 was observed. […] The higher molecular weight isomer of Cdc25c, the mitotic form, increased at 16 and 36 hours. […] A similar study was then performed with other microtubule interfering agents such as combretastatin A4, 13a and vincristine for comparison. A similar trend was observed among these three microtubule interfering agents (FIG. 18).

[3] = tested on: c-kit positive marrow progenitor cells; experiment: bone marrow c-kit-positive progenitor cells: cell cycle and colony forming assay; type: cell-based
Description: FIG. 16. (a) Effect of stilbenes in normal bone marrow progenitor cells. c-kit-positive bone marrow mononuclear cells were isolated for incubation with stilbenes 4a or 4c at 0.1 or 0.5 […] for 16 hours. Cells were harvested for fixation and PI staining. Cell cycle analysis and quantification of the subG0/1 population were analyzed by FACScan flow cytometry. The percentages of the apoptotic population were indicated. Shown are the representatives of two independent experiments. (b) Effect of stilbenes in HL60 cells as positive control. HL60 cells were treated with stilbenes 4a or 4c in the same medium as the positive control. (c) Colony forming assay of the stilbene-treated c-kit-positive cells. A fraction of the cells in (a) were diluted and plated on methylcellulose medium at various densities. Cells were incubated for 14 days and the grossly visible colonies were counted. […] Isolated bone marrow c-kit-positive progenitor cells were incubated with DMSO or stilbenes 4a or 4c at 0.1 or 0.5 μM for 16 hours and injected into tail veins of CD45 congenic mice lethally irradiated with 1200 cGy. Mice were monitored for survival and lineage-specific donor engraftment by flow cytometry analysis of peripheral blood. The percentage of donor cells in T, B, and granulocytic series of the recipients were studied at 7 and 14 weeks after transplantation. Stilbene treated c-Kit progenitor cells had the same percentage as the DMSO treated control in all series.
Mouse bone marrow was harvested from femur and tibia of […], subjected to red blood cell lysis, and labeled with anti-c-kit (3C11; CALTAG Laboratories, Burlingame, Calif.) and streptavidin-conjugated microbeads for MACS separation (Miltenyi Biotech, Auburn, Calif.). The c-kit positive marrow progenitor cells were incubated in Iscove's Modified Eagle's Media supplemented with 30% fetal bovine serum, erythropoietin, stem cell factor and interleukin-3 with or without stilbenes 4a or 4c. The ability of long-term proliferation of the c-kit-positive cells was evaluated with colony forming assay. Cells were first treated with DMSO, stilbenes 4a or 4c for 5 h and a fraction of the cells (4000 cells) were plated in the same enriched culture media with methylcellulose for colony forming assays. The grossly visible colonies were counted after 14 days of incubation.

[4] = tested on: tubulin (colchicine site); experiment: [3H]-colchicine competition for binding tubulin; conditions: 20 min, 37° C.
Description: FIG. 3a-d. […] (a) Effect of stilbene 4a. Pure tubulin was incubated with various concentrations of stilbene 4a, 10 μM nocodazole, and 10 μM paclitaxel in the polymerization buffer. The OD at 340 nm was monitored every minute by SpectraMAX 250 and plotted against time. (b) Effect of stilbene 4c. (c) Comparison of same concentrations of stilbenes 4a, 4a trans, 4c and 4c trans with control. […] The radioactivity of the tubulin was counted. […] All experiments were done in triplicates.
Tubulin retained in the Microcon was washed three times with PBS. The radioactivity of the final concentrated tubulin was determined by a scintillation counter.

[5] = tested on: SNU423 hepatocellular carcinoma cells; experiment: Alamar Blue cell growth inhibition, SNU423; type: cell-based; conditions: SNU423
Description: Cell growth was measured by Alamar Blue™ staining and the OD absorbance at 570 and 600 nm was determined by a microplate reader. The percentage of cell growth inhibition was calculated and compared with the control cells that were treated with 0.1% DMSO, the vehicle for the stilbene compounds.
Various cancer cell lines were grown in 96-well plates for drug sensitivity assays. Once cells achieved 50% confluence, the incubation media was changed to the same cell growth media with different concentrations of the tested compounds or vehicle alone. Cells were then incubated for 48 hours before the cell growth inhibition study. To determine the degree of cell growth inhibition, 1/10 volume of Alamar Blue™ solution was added to each well and optical density (OD) at 570 and 600 nm was determined. The percentage of growth inhibition was calculated according to the manufacturer's formula as follows: The percentage of growth is [(117216×A570)−(80586×A600)]/[(117216×A^o570)−(80586×A^o600)]×100. In this formula, A570 is the absorbance of the treated samples at 570 nm; A600 is the absorbance of the treated samples at 600 nm; A^o570 is the absorbance of the […] samples at 570 nm; and A^o600 is the absorbance of the untreated samples at 600 nm. The two constants, 117216 and 80586, are the extinction coefficients of Alamar Blue™ at 570 and 600 nm respectively. Each concentration was repeated in triplicate to minimize the error.
We first tested the cytotoxic effect of various stilbene derivatives for their in vitro efficacy of suppressing tumor cell proliferation. Cells were first plated in 96-well plates at 50% confluence and treated with 0, 0.01, 0.03, 0.1, 0.3, 1.0, 3.0, 10 μM concentrations of stilbene derivatives for 48 hours in triplicate. Alamar Blue™ reagent was added into each well at 1/10 volume and incubated for 2 hours before quantification of the absorbance at 570 and 600 nm.

COc1cc(/C=C\c2ccc(OC)c(O)c2)cc(OC)c1 [4c, (Z)5-[2-(3,5-Dimethoxy-phenyl)-vinyl]-2-methoxy-phenol]
radioprotection of lethally irradiated mice by treated progenitor cells [1]: all mice were rescued from lethal irradiation | effect on tubulin polymerization (Tubulin (>99% pure)): suppressed tubulin polymerization in a dose-dependent manner but less potent than stilbene 4a | phosphorylation of Stat3 ([2]; 0.1 μM): transient increase in phosphorylation at 4 and 8 hours | phosphorylation of Cdc2 at Tyr15 ([2]; 0.1 μM, 16 hours): decreased dramatically | phosphorylation of Chk1 ([2]; 36 hours): do not cause more phosphorylation of Chk1 | cell cycle of marrow progenitor cells at 0.1 μM [3]: not affected | toxicity to normal bone marrow progenitor cells versus leukemia cells [3]: much less toxic to normal bone marrow progenitor cells | cell cycle of marrow progenitor cells at 0.5 μM ([3]; BALB/c, mouse, 16 h, 0.5 μM): small increase in subG0/1 and G2 population | competition with [3H]-colchicine for tubulin [4]: dose-dependent suppression of tubulin-colchicine interaction | relative potency [5]: much more potent than the trans counterparts
